{
  "source": "patent US11726079B2",
  "about": "“Lighting systems and methods of using lighting systems for in vitro potency assay for Photofrin” (Concordia Laboratories, Inc., priority 2012, dated 2023)",
  "key": {"A549 cells": {"tested_on": "A549 cells", "assay": "Homogeneity of irradiation: every well of an A549 plate treated equally with Photofrin®", "format": "cell-based, human", "details": "Photofrin® at 1.5 μg/mL; wells in the middle of the plate; relative to a second plate of cells without drug; before lengthening the light path from 54 cm to 95.5 cm", "from_the_text": "The Xenon arc lamp produces a bright, broad wavelength irradiance beam that when collimated still retains a bright center. This lack of homogeneity in the intensity of the light beam has to be minimized in order to achieve even irradiation over the area of the 96-well plate. For this purpose, two plano-convex lenses are introduced into the light path to approximate a Kohler illumination (FIG. 1). After an initial dosing ranging study of Photofrin® (data not shown), each well of an assay plate containing A549 cells is treated equally with Photofrin® at 1.5 μg/mL to assess homogeneity of the irradiation. For this experiment, the percent viability is calculated relative to a second plate of cells without drug. […] To address the inhomogeneity in irradiance, the distance from the final bandpass filter to the sample is raised approximately 2-fold from 54 cm to 95.5 cm while the first surface of the plano-convex lenses is maintained at 13.6 cm from the 650 nm cut-off filter. By increasing the length of the light path, the center zone of irradiance is broadened to cover the area of the entire plate (FIG. 13). As the light path is lengthened, the overall irradiance is decreased, necessitating the use of a higher Photofrin® concentration."}, "[1]": {"tested_on": "A549 human lung carcinoma cells", "assay": "Control for the activity of Photofrin® in the absence of irradiation (+D, −L), viability relative to cell control", "format": "cell-based", "method": "The plate is covered with a black lid and placed in the incubator for four hours to allow absorption of the drug by the cells. The plate is then removed from the incubator, the drug is aspirated, the wells are washed with Dulbecco's phosphate buffered saline (DPBS) and fresh, pre-warmed medium is added to the wells. The columns of wells not to be irradiated are covered with foil strips, the black lid is exchanged for a clear lid, and the plate is then moved to the irradiation template beneath the light beam and irradiated for ten minutes, for a total of 3.3 joules. The plate is returned to the incubator and assessed for viability using XTT after 24 hours. The wells covered with foil strips are important controls for the activity of Photofrin® in the absence of irradiation and the effect of light on the cells in the absence of drug.\nThe optical absorbance of the wells in column 1 (high drug concentration, no cells) is evaluated for absorption at 450 nm to ensure that the drug is not interfering with the XTT assay. The percent viability of each of the wells in columns 2-9 and 11 is calculated relative to the mean value of column 10 (cell control, no drug, no light). For each dose response obtained, a four parameter logistic (4PL) nonlinear regression analysis is performed of the percent viability versus the log-Photofrin® concentration. The point of inflection of the regression curve (C value) is defined as the EC50 and used in the calculation of relative potency. Curve fitting and calculation of the EC50 is performed with Softmax v5.4.2 (Molecular Devices, Inc.) or Prism v.5.04 (GraphPad, Software Inc.) software. The mean percent viability of columns 9 and 11 is also calculated.\nCritical aspects of the system suitability will include the acceptable performance of the assay controls. The expectation is that the viability of cells receiving no drug but with light (−D, +L) and cells receiving a high concentration of drug but no light (+D, −L) should approximate the viability of the cell control not receiving drug or light (CC). The percent viability of all samples is based on the CC, which is calculated set at 1.00 and is not included in the Table."}, "[2]": {"tested_on": "A549 human lung carcinoma cells", "assay": "Photofrin® dose response of irradiated A549 cells with MTT as the endpoint", "format": "cell-based", "method": "XTT and MTT are two types of formazan dyes that are used to measure mitochondrial function as a surrogate for cell viability. A Photofrin® dose response curve is performed with either XTT or MTT as the endpoint. The results obtained with these two endpoints differ by approximately 15%, but each produces consistent values (see Table 2, below). As the potency of an unknown will be determined with respect to a Reference Lot, the absolute EC50 value is not critical. Given that the use of the MTT dye requires an additional solubilization step, XTT is selected for use in this assay."}},
  "note": "“And” between values parts separate entries of the source, which are not always exact repeats. Equal entries are not always repeated.",
  "data": [
    {"substance": "porfimer sodium [Photofrin®]", "values": [
      {"measurement": "viability", "setting": "A549 cells", "result": 103, "unit": "%"},
      {"measurement": "+D, −L/CC", "setting": "[1]; 70 μg/mL drug, no irradiation, ratio to cell control (no drug, no irradiation), Plate 1 (left to right dilution; controls in columns 9-11)", "result": 0.994},
      {"measurement": "+D, −L/CC", "setting": "[1]; 70 μg/mL drug, no irradiation, ratio to cell control, Plate 2 (placement Test, Standard; controls in columns 9-11)", "result": 0.926},
      {"measurement": "+D, −L/CC", "setting": "[1]; 70 μg/mL drug, no irradiation, ratio to cell control, Plate 3 (right to left dilution; controls in columns 9-11)", "result": 0.981},
      {"measurement": "+D, −L/CC", "setting": "[1]; 70 μg/mL drug, no irradiation, ratio to cell control, Plate 4 (left to right dilution; controls in columns 9-11)", "result": 0.928},
      {"measurement": "+D, −L/CC", "setting": "[1]; 70 μg/mL drug, no irradiation, ratio to cell control, Plate 5 (left to right dilution; controls in columns 2-4)", "result": 1.00},
      {"measurement": "+D, −L/CC, Mean", "setting": "[1]; 70 μg/mL drug, no irradiation, ratio to cell control, mean across Plates 1-5 of positional analysis", "result": 0.967},
      {"measurement": "+D, −L", "setting": "[1]; high concentration of drug, no light, viability based on cell control set at 1.00, experiments of Table 1, black plates", "result": "1.05 and 0.893 and 1.09"},
      {"measurement": "+D, −L", "setting": "[1]; high concentration of drug, no light, viability based on cell control set at 1.00, experiments of Table 1, clear plates (significant cell killing, excluded from the analysis)", "result": "0.012 and 0.019 and 0.024"},
      {"measurement": "+D, −L", "setting": "[1]; high concentration of drug, no light, viability based on cell control set at 1.00, experiments of Table 2, black plates", "result": "1.06 and 0.947 and 0.986"},
      {"measurement": "+D, −L", "setting": "[1]; high concentration of drug, no light, viability based on cell control set at 1.00, experiments of Table 4, black plates", "result": "0.994 and 0.926 and 0.981 and 0.928 and 1.00"},
      {"measurement": "+D, −L", "setting": "[1]; high concentration of drug, no light, viability based on cell control set at 1.00, experiments of Table 5, black plates", "result": "0.999 and 1.02 and 1.00 and 1.29 and 0.973"},
      {"measurement": "+D, −L", "setting": "[1]; high concentration of drug, no light, viability based on cell control set at 1.00, experiments of Table 6, black plates", "result": "0.990 and 0.981 and 0.977"},
      {"measurement": "+D, −L", "setting": "[1]; high concentration of drug, no light, viability based on cell control set at 1.00, experiments of Table 7, black plates", "result": "0.973 and 1.00"},
      {"measurement": "+D, −L", "setting": "[1]; high concentration of drug, no light, viability based on cell control set at 1.00, experiments of Table 8, black plates", "result": "1.02 and 0.992 and 0.995 and 0.959 and 0.985"},
      {"measurement": "+D, −L", "setting": "[1]; high concentration of drug, no light, viability based on cell control set at 1.00, experiments of Table 9, black plates", "result": "1.01 and 0.898 and 0.959"},
      {"measurement": "+D, −L", "setting": "[1]; high concentration of drug, no light, viability based on cell control set at 1.00, experiments of Table 10, black plates", "result": "1.09 and 1.08 and 0.995"},
      {"measurement": "+D, −L", "setting": "[1]; high concentration of drug, no light, viability based on cell control set at 1.00, experiments of Table 11, black plates", "result": "0.980 and 0.973 and 1.02 and 0.956"},
      {"measurement": "+D, −L", "setting": "[1]; high concentration of drug, no light, viability based on cell control set at 1.00, experiments of Table 12, black plates", "result": "0.990 and 0.906 and 1.03 and 1.02 and 1.00"},
      {"measurement": "+D, −L, Mean", "setting": "[1]; high concentration of drug, no light, viability based on cell control set at 1.00, mean of all experiments, clear plate values excluded", "result": 1.00},
      {"measurement": "EC50-MTT", "setting": "[2]; experiment PIN-009, in µg/mL", "result": "8.28 and 8.11"},
      {"measurement": "EC50-MTT, Mean", "setting": "[2]; experiment PIN-009, mean", "result": 8.2, "unit": "µg/mL"}
    ]}
  ]
}
